System: KM mice
Assay: Test for drug-induced disappearance of righting reflex in mice
Assay type: in vivo
Conditions: single rapid bolus via tail vein
Description: In anesthetic drug experiments, latency generally refers to the time from the start of administration to the loss of consciousness of the subject. The shorter latency is preferred, indicating a rapid onset of action after administration. The duration of anesthesia generally refers to the duration of time from the loss of consciousness to the restoration of consciousness of the subject. The duration of the drug will vary from animal model to animal species. Too long anesthesia may produce adverse cardiovascular and respiratory responses, such as adverse neurological effects to the subject, including sleepiness and dizziness; meanwhile, too short duration of anesthesia may affect the anesthesia effect, causing problems such as increase of anesthesia dosage during the operation.
KM mice (female, 18-25 g) were randomly grouped and subjected to a single administration by rapid bolus via the tail vein. The latency and duration of disappearance of righting reflex in the mice were recorded.

| SMILES | Duration (30 mg/kg) [min] | Latency (30 mg/kg) [min] | Duration (60 mg/kg) [min] | Latency (60 mg/kg) [min] |
| --- | --- | --- | --- | --- |
| CCCSc1nnc2n1-c1ccc([N+](=O)[O-])cc1C(c1ccccc1F)=N[C@H]2CCC(=O)OC [Compound 16, methyl (S)-3-(8-nitro-6-(2-fluorophenyl)-1-(propylthio)-4H-benzo[f][1,2,4]triazolo[4,3-a][1,4]diazepin-4-yl)propionate] | 6.25 | 0.79 | 6.6 | 0.28 |
| COC(=O)CC[C@@H]1N=C(c2ccccc2F)c2cc(Cl)ccc2-n2c(SCCO)nnc21 [Compound 17, methyl (S)-3-(8-chloro-6-(2-fluorophenyl)-1-((2-hydroxyethyl)thio)-4H-benzo[f][1,2,4]triazolo[4,3-a][1,4]diazepin-4-yl)propionate] | 15.35 | 1.09 | – | – |
| COC(=O)CC[C@@H]1N=C(c2ccccc2F)c2cc(Br)ccc2-n2c(SCCO)nnc21 [Compound 18, methyl (S)-3-(8-bromo-6-(2-fluorophenyl)-1-((2-hydroxyethyl)thio)-4H-benzo[f][1,2,4]triazolo[4,3-a][1,4]diazepin-4-yl)propionate] | 4.74 | 0.31 | 9.16 | 0.33 |
| COC(=O)CC[C@@H]1N=C(c2ccccc2F)c2cc([N+](=O)[O-])ccc2-n2c(SCCO)nnc21 [Compound 19, methyl (S)-3-(8-nitro-6-(2-fluorophenyl)-1-((2-hydroxyethyl)thio)-4H-benzo[f][1,2,4]triazolo[4,3-a][1,4]diazepin-4-yl)propionate] | 16.22 | 0.89 | – | – |
| COC(=O)CC[C@@H]1N=C(c2ccccc2F)c2cc(Cl)ccc2-n2c(SCCN)nnc21 [Compound 20, methyl (S)-3-(8-chloro-6-(2-fluorophenyl)-1-((2-aminoethyl)thio)-4H-benzo[f][1,2,4]triazolo[4,3-a][1,4]diazepin-4-yl)propionate] | 9.82 | 0.27 | – | – |
| COC(=O)CC[C@@H]1N=C(c2ccccc2F)c2cc(Br)ccc2-n2c(SCCN)nnc21 [Compound 21, methyl (S)-3-(8-bromo-6-(2-fluorophenyl)-1-((2-aminoethyl)thio)-4H-benzo[f][1,2,4]triazolo[4,3-a][1,4]diazepin-4-yl)propionate] | 2.83 | 0.35 | 6.4 | 0.2 |
| COC(=O)CC[C@@H]1N=C(c2ccccc2F)c2cc([N+](=O)[O-])ccc2-n2c(SCCN)nnc21 [Compound 22, methyl (S)-3-(8-nitro-6-(2-fluorophenyl)-1-((2-aminoethyl)thio)-4H-benzo[f][1,2,4]triazolo[4,3-a][1,4]diazepin-4-yl)propionate] | 6.53 | 0.58 | – | – |
| CCSc1nnc2n1-c1ccc(Br)cc1C(c1ccccc1Cl)=N[C@H]2CCC(=O)OC [Compound 27, methyl (S)-3-(8-bromo-6-(2-chlorophenyl)-1-(ethylthio)-4H-benzo[f][1,2,4]triazolo[4,3-a][1,4]diazepin-4-yl)propionate] | 5.93 | 0.35 | – | – |
| CCSc1nnc2n1-c1ccc([N+](=O)[O-])cc1C(c1ccccc1Cl)=N[C@H]2CCC(=O)OC [Compound 28, methyl (S)-3-(8-nitro-6-(2-chlorophenyl)-1-(ethylthio)-4H-benzo[f][1,2,4]triazolo[4,3-a][1,4]diazepin-4-yl)propionate] | – | – | 4.24 | 0.46 |
| CCCSc1nnc2n1-c1ccc([N+](=O)[O-])cc1C(c1ccccc1Cl)=N[C@H]2CCC(=O)OC [Compound 31, methyl (S)-3-(8-nitro-6-(2-chlorophenyl)-1-(propylthio)-4H-benzo[f][1,2,4]triazolo[4,3-a][1,4]diazepin-4-yl)propionate] | 8.98 | 2.85 | – | – |
| COC(=O)CC[C@@H]1N=C(c2ccccc2Cl)c2cc(Cl)ccc2-n2c(SC(C)=O)nnc21 [Compound 38, methyl (S)-3-(8-chloro-6-(2-chlorophenyl)-1-(acetylthio)-4H-benzo[f][1,2,4]triazolo[4,3-a][1,4]diazepin-4-yl)propionate] | 12.94 | 0.67 | – | – |
| COC(=O)CC[C@@H]1N=C(c2ccccc2Cl)c2cc([N+](=O)[O-])ccc2-n2c(SC(C)=O)nnc21 [Compound 40, methyl (S)-3-(8-nitro-6-(2-chlorophenyl)-1-(acetylthio)-4H-benzo[f][1,2,4]triazolo[4,3-a][1,4]diazepin-4-yl)propionate] | 8.94 | 0.37 | – | – |
| CCOC(=O)CC[C@@H]1N=C(c2ccccc2Cl)c2cc(Cl)ccc2-n2c(S)nnc21 [Compound 41, ethyl (S)-3-(8-chloro-6-(2-chlorophenyl)-1-mercapto-4H-benzo[f][1,2,4]triazolo[4,3-a][1,4]diazepin-4-yl)propionate] | – | – | 8.59 | 0.40 |
| CCOC(=O)CC[C@@H]1N=C(c2ccccc2Cl)c2cc(Cl)ccc2-n2c(SC)nnc21 [Compound 42, ethyl (S)-3-(8-chloro-6-(2-chlorophenyl)-1-(methylthio)-4H-benzo[f][1,2,4]triazolo[4,3-a][1,4]diazepin-4-yl)propionate] | 4.68 | 0.65 | – | – |
| CCOC(=O)CC[C@@H]1N=C(c2ccccc2Cl)c2cc(Br)ccc2-n2c(SC)nnc21 [Compound 43, ethyl (S)-3-(8-bromo-6-(2-chlorophenyl)-1-(methylthio)-4H-benzo[f][1,2,4]triazolo[4,3-a][1,4]diazepin-4-yl)propionate] | 12.38 | 0.38 | 7.25 | 0.84 |
| CCOC(=O)CC[C@@H]1N=C(c2ccccc2Cl)c2cc([N+](=O)[O-])ccc2-n2c(SC)nnc21 [Compound 44, ethyl (S)-3-(8-nitro-6-(2-chlorophenyl)-1-(methylthio)-4H-benzo[f][1,2,4]triazolo[4,3-a][1,4]diazepin-4-yl)propionate] | 16.27 | 1.28 | – | – |
| COC(=O)CC[C@@H]1N=C(c2ccccc2F)c2cc(Cl)ccc2-n2c(SCC3CC3)nnc21 [Compound 45, methyl (S)-3-(8-chloro-1-((cyclopropylmethyl)thio)-6-(2-fluorophenyl)-4H-benzo[f][1,2,4]triazolo[4,3-a][1,4]diazepin-4-yl)propionate] | 11.37 | 0.65 | – | – |
| COC(=O)CC[C@@H]1N=C(c2ccccc2F)c2cc(Br)ccc2-n2c(SCC3CC3)nnc21 [Compound 46, methyl (S)-3-(8-bromo-1-((cyclopropylmethyl)thio)-6-(2-fluorophenyl)-4H-benzo[f][1,2,4]triazolo[4,3-a][1,4]diazepin-4-yl)propionate] | 10.83 | 0.69 | – | – |
| COC(=O)CC[C@@H]1N=C(c2ccccc2F)c2cc([N+](=O)[O-])ccc2-n2c(SCC3CC3)nnc21 [Compound 47, methyl (S)-3-(8-nitro-1-((cyclopropylmethyl)thio)-6-(2-fluorophenyl)-4H-benzo[f][1,2,4]triazolo[4,3-a][1,4]diazepin-4-yl)propionate] | – | – | 10.52 | 0.82 |
| C#CCSc1nnc2n1-c1ccc(Cl)cc1C(c1ccccc1F)=N[C@H]2CCC(=O)OC [Compound 48, methyl (S)-3-(8-chloro-6-(2-fluorophenyl)-1-(prop-2-yn-1-ylthio)-4H-benzo[f][1,2,4]triazolo[4,3-a][1,4]diazepin-4-yl)propionate] | – | – | 8.54 | 1.25 |
| C#CCSc1nnc2n1-c1ccc(Br)cc1C(c1ccccc1F)=N[C@H]2CCC(=O)OC [Compound 49, methyl (S)-3-(8-bromo-6-(2-fluorophenyl)-1-(prop-2-yn-1-ylthio)-4H-benzo[f][1,2,4]triazolo[4,3-a][1,4]diazepin-4-yl)propionate] | 9.65 | 0.73 | – | – |
| C#CCSc1nnc2n1-c1ccc([N+](=O)[O-])cc1C(c1ccccc1F)=N[C@H]2CCC(=O)OC [Compound 50, methyl (S)-3-(8-nitro-6-(2-fluorophenyl)-1-(prop-2-yn-1-ylthio)-4H-benzo[f][1,2,4]triazolo[4,3-a][1,4]diazepin-4-yl)propionate] | 15.27 | 0.93 | – | – |
| CCN(CC)CCSc1nnc2n1-c1ccc(Cl)cc1C(c1ccccc1F)=N[C@H]2CCC(=O)OC [Compound 54, methyl (S)-3-(8-chloro-1-((2-(diethylamino)ethyl)thio)-6-(2-fluorophenyl)-4H-benzo[f][1,2,4]triazolo[4,3-a][1,4]diazepin-4-yl)propionate] | 6.83 | 0.24 | – | – |
| CCN(CC)CCSc1nnc2n1-c1ccc(Br)cc1C(c1ccccc1F)=N[C@H]2CCC(=O)OC [Compound 55, methyl (S)-3-(8-bromo-1-((2-(diethylamino)ethyl)thio)-6-(2-fluorophenyl)-4H-benzo[f][1,2,4]triazolo[4,3-a][1,4]diazepin-4-yl)propionate] | 13.84 | 0.74 | – | – |
| CCN(CC)CCSc1nnc2n1-c1ccc([N+](=O)[O-])cc1C(c1ccccc1F)=N[C@H]2CCC(=O)OC [Compound 56, methyl (S)-3-(8-nitro-1-((2-(diethylamino)ethyl)thio)-6-(2-fluorophenyl)-4H-benzo[f][1,2,4]triazolo[4,3-a][1,4]diazepin-4-yl)propionate] | 10.22 | 0.92 | – | – |

From US20230416258A1, “BENZ[…], AND PREPARATION METHOD THEREFOR AND USE THEREOF” (CHINA PHARMACEUTICAL UNIVERSITY, priority 2020, published 2023)
